Results: patent US20220144815A1, “1,3,4-OXADIAZOLES AND THEIR DERIVATIVES AS NEW ANTIFUNGAL AGENTS” (Bayer Aktiengesellschaft, priority 2018, published 2022)
Like-named read-outs stand apart in the source and are kept apart here.

Experiments:
[1] = Log P by HPLC on reversed phase columns, method [a] (EEC directive 79/831 Annex V.A8); assay type: physicochemical; details: reversed phase HPLC column, read-out: logP
Summary of the method: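 Reversed-phase HPLC with LC-UV detection per EEC directive 79/831 Annex V.A8, acidic eluent of 0.1% formic acid in water and acetonitrile, linear gradient 10% to 95% acetonitrile. Log P derived from retention times, calibrated against straight-chain alkan-2-ones (C3–C16) by linear interpolation.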

[2] = tested on: Colletotrichum lindemuthianum; test: Example B: in vitro cell test, spore germination and mycelium growth in liquid culture; assay type: cell-based; details: 144 h, 20 ppm of tested compound, 6 days incubation, read-out: efficacy (inhibition of fungal growth)
Method: • Solvent: dimethyl sulfoxide Culture medium: 14.6 g anhydrous D-glucose (VWR), • 7.1 g mycological peptone (Oxoid), • 1.4 g granulated yeast extract (Merck), QSP 1 liter Inoculum: spore suspension The tested compounds were solubilized in dimethyl sulfoxide and the solution used to prepare the required range of concentrations. The final concentration of dimethyl sulfoxide used in the assay was ≤1%. A spore suspension of Colletotrichum lindemuthianum was prepared and diluted to the desired spore density. The compounds were evaluated for their ability to inhibit spore germination and mycelium growth in liquid culture assay. The compounds were added in the desired concentration to the culture medium with spores. After 6 days incubation, fungi-toxicity of compounds was determined by spectrometric measurement of mycelium growth. Inhibition of fungal growth was determined by comparing the absorbance values in wells containing the tested compounds with the absorbance in control wells without tested compounds.

[3] = tested on: Alternaria brassicae; test: Example E: in vivo preventive test (cabbage); details: 144 h, 500 ppm of tested compound, preventive spray, evaluated 6 days after inoculation, read-out: efficacy
Method: Solvent: 5% by volume of dimethyl sulfoxide • 10% by volume of acetone Emulsifier: 1 μL of Tween® 80 per mg of active ingredient The tested compounds were made soluble and homogenized in a mixture of Dimethyl sulfoxide/Acetone/Tween® 80 and then diluted in water to the desired concentration. The young plants of cabbage were treated by spraying the tested compound prepared as described above. Control plants were treated only with an aqueous solution of Acetone/Dimethyl sulfoxide/Tween® 80. After 24 hours, the plants were contaminated by spraying the leaves with an aqueous suspension of Alternaria brassicae spores. The contaminated cabbage plants were incubated for 6 days at 20° C. and at 100% relative humidity. The test was evaluated 6 days after the inoculation. 0% means an efficacy which corresponds to that of the control plants while an efficacy of 100% means that no disease was observed.

[4] = tested on: Phakopsora pachyrhizi; test: Example F: in vivo preventive test (soybeans), DMSO/acetone/Tween 80; details: 288 h, 500 ppm of tested compound, preventive spray, soybean, evaluated 12 days after inoculation, read-out: efficacy
Method: Solvent: 5% by volume of dimethyl sulfoxide • 10% by volume of acetone
Emulsifier: 1 μL of Tween® 80 per mg of active ingredient
The tested compounds were made soluble and homogenized in a mixture of dimethyl sulfoxide/acetone/Tween® 80 and then diluted in water to the desired concentration.
The young plants of wheat were treated by spraying the tested compound prepared as described above. Control plants were treated only with an aqueous solution of acetone/dimethyl sulfoxide/Tween® 80.
After 24 hours, the plants were contaminated by spraying the leaves with an aqueous suspension of Phakospora pachyrhizi spores. The contaminated soybean plants were incubated for 24 hours at 24° C. and at 100% relative humidity and then for 11 days at 24° C. and at 70-80% relative humidity.
The test was evaluated 12 days after the inoculation. 0% means an efficacy which corresponds to that of the control plants while an efficacy of 100% means that no disease was observed.

[5] = log P determined according to method [a] (HPLC on reversed phase columns)
[6] = method [a], HPLC on reversed phase columns

| SMILES | inhibition of growth at 20 µg/mL [2] [%] | pest or weed control at 500 µg/mL [3] [%] | other results |
| --- | --- | --- | --- |
| CC(C)C(Nc1ncc(-c2nnc(C(F)F)o2)cn1)c1ccccc1 (racemic) [I.139, 5-[5-(difluoromethyl)-1,3,4-oxadiazol-2-yl]-N-[(1RS)-2-methyl-1-phenylpropyl]pyrimidin-2-amine] | 90 to 100 |  | chromatographic logP [1, 5]: 3.57 |
| N#CC(Nc1ncc(-c2nnc(C(F)F)o2)cn1)c1ccc(F)cc1 (racemic) [I.141, (2RS)—({5-[5-(difluoromethyl)-1,3,4-oxadiazol-2-yl]pyrimidin-2-yl}amino)(4-fluorophenyl)acetonitrile] | 70 to 79 |  | chromatographic logP [1, 5]: 2.65 |
| CSc1ccc(-c2nnc(C(F)F)o2)cc1 [I.002, 2-(difluoromethyl)-5-[4-(methylsulfanyl)phenyl]-1,3,4-oxadiazole] |  | 70 to 79 |  |
| FC(F)c1nnc(-c2ccc(-n3ccnn3)cc2)o1 [I.005, 2-(difluoromethyl)-5-[4-(1H-1,2,3-triazol-1-yl)phenyl]-1,3,4-oxadiazole] |  | 90 to 100 |  |
| FC(F)c1nnc(-c2ccc(-c3ccccc3)cc2)o1 [I.007, 2-([biphenyl]-4-yl)-5-(difluoromethyl)-1,3,4-oxadiazole] |  | 80 to 89 |  |
| FC(F)c1nnc(-c2ccc(Br)cc2)o1 [I.009, 2-(4-bromophenyl)-5-(difluoromethyl)-1,3,4-oxadiazole] |  |  | pest or weed control at 500 µg/mL [4]: 70 to 79% |
| FC(F)c1nnc(-c2ccc(Cn3ccnc3)cc2)o1 [I.010, 2-(difluoromethyl)-5-[4-(1H-imidazol-1-ylmethyl)phenyl]-1,3,4-oxadiazole] |  | 90 to 100 |  |
| FC(F)c1nnc(-c2ccc(Nc3ncccn3)cc2)o1 [I.013, N-{4-[5-(difluoromethyl)-1,3,4-oxadiazol-2-yl]phenyl}pyrimidin-2-amine] | 90 to 100 | 90 to 100 |  |
| Fc1ccccc1Nc1ccc(-c2nnc(C(F)F)o2)cc1 [I.017, N-{4-[5-(difluoromethyl)-1,3,4-oxadiazol-2-yl]phenyl}-2-fluoroaniline] | 90 to 100 | 80 to 89 |  |
| FC(F)c1nnc(-c2ccc(-c3nnc(C(F)F)o3)cc2)o1 [I.019, 2,2′-(1,4-phenylene)bis[5-(difluoromethyl)-1,3,4-oxadiazole]] |  |  | pest or weed control at 500 µg/mL [4]: 90 to 100% |
| FC(F)c1nnc(-c2ccc(COc3ccc(Cl)cc3)cc2)o1 [I.024, 2-{4-[(4-chlorophenoxy)methyl]phenyl}-5-(difluoromethyl)-1,3,4-oxadiazole] |  |  | pest or weed control at 500 µg/mL [4]: 90 to 100% |
| FC(F)c1nnc(-c2ccc(N3CCCCC3)nc2)o1 [I.040, 5-[5-(difluoromethyl)-1,3,4-oxadiazol-2-yl]-2-(piperidin-1-yl)pyridine] |  | 70 to 79 |  |
| Nc1ncc(-c2nnc(C(F)F)o2)cn1 [I.059, 5-[5-(difluoromethyl)-1,3,4-oxadiazol-2-yl]pyrimidin-2-amine] |  |  | pest or weed control at 500 µg/mL [4]: 90 to 100% |
| COCCNc1ncc(-c2nnc(C(F)F)o2)cn1 [I.068, 5-[5-(difluoromethyl)-1,3,4-oxadiazol-2-yl]-N-(2-methoxyethyl)pyrimidin-2-amine] | 90 to 100 | 70 to 79 |  |
| FC(F)c1nnc(-c2cnc(-c3ccsc3)nc2)o1 [I.072, 5-[5-(difluoromethyl)-1,3,4-oxadiazol-2-yl]-2-(3-thienyl)pyrimidine] |  | 70 to 79 |  |
| FC(F)c1nnc(-c2cnc(CC3CCCCC3)nc2)o1 [I.083, 2-(cyclohexylmethyl)-5-[5-(difluoromethyl)-1,3,4-oxadiazol-2-yl]pyrimidine] |  |  | pest or weed control at 500 µg/mL [4]: 90 to 100% |

| SMILES | inhibition of growth at 20 µg/mL [2] [%] | pest or weed control at 500 µg/mL [3] [%] | other results |
| --- | --- | --- | --- |
| CN(c1ccccc1)c1ncc(-c2nnc(C(F)F)o2)cn1 [I.087, 5-[5-(difluoromethyl)-1,3,4-oxadiazol-2-yl]-N-methyl-N-phenylpyrimidin-2-amine] |  | 90 to 100 |  |
| FC(F)c1nnc(-c2cnc(NCc3ccccc3)nc2)o1 [I.088, N-benzyl-5-[5-(difluoromethyl)-1,3,4-oxadiazol-2-yl]pyrimidin-2-amine] |  |  | pest or weed control at 500 µg/mL [4]: 90 to 100% |
| Fc1cccc(Nc2ncc(-c3nnc(C(F)F)o3)cn2)c1 [I.094, 5-[5-(difluoromethyl)-1,3,4-oxadiazol-2-yl]-N-(3-fluorophenyl)pyrimidin-2-amine] |  | 90 to 100 |  |
| FC(F)c1nnc(-c2cnc(NCC3CCOCC3)nc2)o1 [I.105, 5-[5-(difluoromethyl)-1,3,4-oxadiazol-2-yl]-N-(tetrahydro-2H-pyran-4-ylmethyl)pyrimidin-2-amine] |  | 80 to 89 | chromatographic logP [1, 5]: 1.73 |
| Fc1ccc(CNc2ncc(-c3nnc(C(F)F)o3)cn2)cc1 [I.112, 5-[5-(difluoromethyl)-1,3,4-oxadiazol-2-yl]-N-(4-fluorobenzyl)pyrimidin-2-amine] | 70 to 79 |  | chromatographic logP [1, 5]: 2.64 |
| Fc1ccc(Cc2ncc(-c3nnc(C(F)F)o3)cn2)c(F)c1 [I.115, 2-(2,4-difluorobenzyl)-5-[5-(difluoromethyl)-1,3,4-oxadiazol-2-yl]pyrimidine] |  |  | chromatographic logP [1, 5]: 2.7; pest or weed control at 500 µg/mL [4]: 70 to 79% |
| Fc1ccccc1Nc1ncc(-c2nnc(C(F)(F)Cl)o2)cn1 [I.131, 5-{5-[chloro(difluoro)methyl]-1,3,4-oxadiazol-2-yl}-N-(2-fluorophenyl)pyrimidin-2-amine] | 90 to 100 | 90 to 100 | chromatographic logP [1, 5]: 3.26 |
| N#Cc1ccc(C2(Nc3ncc(-c4nnc(C(F)F)o4)cn3)CC2)cc1 [I.152, 4-[1-({5-[5-(difluoromethyl)-1,3,4-oxadiazol-2-yl]pyrimidin-2-yl}amino)cyclopropyl]benzonitrile] | 90 to 100 |  | chromatographic logP [1, 5]: 2.33 |
| FC(F)c1nnc(-c2cnc(NC3(c4ccccc4)CCC3)nc2)s1 [I.159, 5-[5-(difluoromethyl)-1,3,4-thiadiazol-2-yl]-N-(1-phenylcyclobutyl)pyrimidin-2-amine] | 90 to 100 |  | chromatographic logP [1, 5]: 3.54 |
| CON(Cc1ccc(Cl)cc1)c1ncc(-c2nnc(C(F)F)o2)cn1 [I.169, N-(4-chlorobenzyl)-N-{5-[5-(difluoromethyl)-1,3,4-oxadiazol-2-yl]pyrimidin-2-yl}-O-methylhydroxylamine] | 80 to 89 |  | chromatographic logP [1, 5]: 3.31 |
| Fc1cccc(C2(Nc3ncc(-c4nnc(C(F)F)o4)cn3)CCCC2)c1 [I.172, 5-[5-(difluoromethyl)-1,3,4-oxadiazol-2-yl]-N-[1-(3-fluorophenyl)cyclopentyl]pyrimidin-2-amine] | 70 to 79 | 80 to 89 | chromatographic logP [1, 6]: 3.6 |
| FC(F)(F)c1nnc(-c2cnc(NC3(c4ccccc4)CCC3)nc2)s1 [I.173, N-(1-phenylcyclobutyl)-5-[5-(trifluoromethyl)-1,3,4-thiadiazol-2-yl]pyrimidin-2-amine] | 80 to 89 |  | chromatographic logP [1, 6]: 4.12 |
| FC(F)(Cl)c1nnc(-c2cnc(NC3(c4ccccc4)CCC3)nc2)o1 [I.176, 5-{5-[chloro(difluoro)methyl]-1,3,4-oxadiazol-2-yl}-N-(1-phenylcyclobutyl)pyrimidin-2-amine] | 70 to 79 |  | chromatographic logP [1, 6]: 4.08 |
| FC(F)c1nnc(-c2cnc(NC3(c4ccc(Cl)cc4)CCCCC3)nc2)o1 [I.182, N-[1-(4-chlorophenyl)cyclohexyl]-5-[5-(difluoromethyl)-1,3,4-oxadiazol-2-yl]pyrimidin-2-amine] | 70 to 79 |  | chromatographic logP [1, 6]: 4.4 |
| FC(F)c1nnc(-c2cnc(NC3(c4ccccc4Br)CC3)nc2)o1 [I.183, N-[1-(2-bromophenyl)cyclopropyl]-5-[5-(difluoromethyl)-1,3,4-oxadiazol-2-yl]pyrimidin-2-amine] | 80 to 89 |  | chromatographic logP [1, 6]: 3.49 |
